Laboratory results as given in patent US4017611A, “Control of insects with 3-hydroxymethacrylic acid methyl ester dimethylthionophosphate” (priority 1970, dated 1977).
Like-named read-outs stand apart in the source and are kept apart here.

Assays:
insects = test: Insecticidal action and effective life (general statement); type: in vivo
Rhizopertha dominica = test: Durability (disinfection) test on wheat, lesser grain borer; type: in vivo; details: Rhyzopertha dominica, 168 h, read-out: % animals dead after one week exposure
Source text: (§1) Wheat was shaken up with 5% dusting agent and then mixed again repeatedly with untreated wheat at half the poison concentration. In this way, a dilution series with concentrations of 50 - 25 - 12 - 6 - 3 - 1.5 ppm was obtained.
(§2) Since the test is repeated once per month, the desired information is obtained concerning the residual effect. In the test, the important pests in storage protection were chosen, viz, the grain weevil (Sitophilus granarius) - lesser grain borer (Rhizopertha dominica) and the larvae of the Khapra beetle (Trogoderma granarium), which are very resistant to insecticides. 20 test insects were tested per concentration and the results are expressed in the following table.

[1] = tested on: one day old houseflies (Musca domestica); test: Ingestion test with one day old houseflies; type: in vivo; details: read-out: % flies killed; for mortality at 0.4 ppm: 0.4 ppm in 30% sugar water; for mortality at 0.8 ppm: 0.8 ppm in 30% sugar water; for mortality at 1.5 ppm: 1.5 ppm in 30% sugar water; for mortality at 3 ppm: 3 ppm in 30% sugar water; for mortality at 6 ppm: 6 ppm in 30% sugar water; for mortality at 12 ppm: 12 ppm in 30% sugar water; for mortality at 25 ppm: 25 ppm in 30% sugar water; for mortality at 50 ppm: 50 ppm in 30% sugar water; for mortality at 100 ppm: 100 ppm in 30% sugar water
Protocol: Dilution series were manufactured with water. As solvent for the test preparations and similarly as a nutrition agent for the flies, 30% sugar water was used which had been coloured with chlorantin light red (as an attractant). The dilutions were tested with one day old houseflies. The 1, 2 and 4 hour controls enabled the speed of action to be determined. By means of the 24 hour control the limit concentration (action strength) could also be determined.

[2] = Vapour pressure and diffusion (general statement)
Sitophilus granarius = test: Durability (disinfection) test on wheat, grain weevil; type: in vivo; details: 168 h, read-out: % animals dead after one week exposure
Source text: as §1, §2

Sit. Granarius = test: Diffusion action in wheat (gas phase between wheat grains); type: in vivo; details: Sitophilus granarius, 168 h, 50 ppm treated wheat layer, read-out: Mortality in % after 7 days exposure time
Source text: A plexiglass box was divided by means of wire grids into ten vertical layers each 1 cm thick. Each compartment was filled with wheat grains. The first compartment contained wheat grains which had been treated with 50 ppm active agent (5% dusting agent). The remainder of the compartment contained untreated wheat. All the compartments were then supplied with grain weevils. The mortality was noted after 7 days exposure time and the results are expressed in the following table. Diffusion of active substance in gas phase between the wheat grains

[3] = Acute oral toxicity (warm blooded toxicity) in rats; details: rat, in vivo, po
Trogoderma granarium (L) = test: Durability (disinfection) test on wheat, larvae of the Khapra beetle; type: in vivo; details: 168 h, read-out: % animals dead after one week exposure
Source text: as §1, §2

[4] = compared to compounds of French Pat. No. 1530955, PHOSDRIN or DDVP

In the case of `COC(=O)C(C)=COP(=S)(OC)OC` [Compound I, 3-hydroxymethacrylic acid methyl ester dimethylthionophosphate], the insecticidal action (insects; [4]) is reported as “stronger insecticidal action”, the effective life (insects; in vivo) is reported as “more than 4 months” and the mortality at 1.5 ppm (Rhizopertha dominica; wheat fresh) is reported as 20%. The mortality at 1.5 ppm (Rhizopertha dominica; wheat stored 1 month) was 0%, the mortality at 1.5 ppm (Rhizopertha dominica; wheat stored 2 months) was 15% and the mortality at 1.5 ppm (Rhizopertha dominica; wheat stored 3 months) was 0%. The mortality at 3 ppm (Rhizopertha dominica; wheat fresh) was 90%, the mortality at 3 ppm (Rhizopertha dominica; wheat stored 1 month) was 5% and the mortality at 3 ppm (Rhizopertha dominica; wheat stored 2 months) was 10%. It also gave a mortality at 3 ppm (Rhizopertha dominica; wheat stored 3 months) of 15%, a mortality at 6 ppm (Rhizopertha dominica; wheat fresh) of 100% and a mortality at 6 ppm (Rhizopertha dominica; wheat stored 1 month) of 60%. It also gave a mortality at 6 ppm (Rhizopertha dominica; wheat stored 2 months) of 40%, a mortality at 6 ppm (Rhizopertha dominica; wheat stored 3 months) of 15% and a mortality at 12 ppm (Rhizopertha dominica; wheat fresh) of 100%. For the same compound, the mortality at 12 ppm (Rhizopertha dominica; wheat stored 1 month) was 85%, the mortality at 12 ppm (Rhizopertha dominica; wheat stored 2 months) was 70% and the mortality at 12 ppm (Rhizopertha dominica; wheat stored 3 months) was 35%. For the same compound, the mortality at 25 ppm (Rhizopertha dominica; wheat fresh) was 100%, the mortality at 25 ppm (Rhizopertha dominica; wheat stored 1 month) was 100% and the mortality at 25 ppm (Rhizopertha dominica; wheat stored 2 months) was 80%. The mortality at 25 ppm (Rhizopertha dominica; wheat stored 3 months) was 75%, the mortality at 50 ppm (Rhizopertha dominica; wheat fresh) was 100% and the mortality at 50 ppm (Rhizopertha dominica; wheat stored 1 month) was 100%. For the same compound, the mortality at 50 ppm (Rhizopertha dominica; wheat stored 2 months) was 100%, the mortality at 50 ppm (Rhizopertha dominica; wheat stored 3 months) was 100% and the mortality at 0.4 ppm ([1]; 1 hour) was 0%. It also gave a mortality at 0.4 ppm ([1]; 2 hours) of 0%, a mortality at 0.4 ppm ([1]; 4 hours) of 0% and a mortality at 0.4 ppm ([1]; 24 hours) of 0%. It also gave a mortality at 0.8 ppm ([1]; 1 hour) of 0%, a mortality at 0.8 ppm ([1]; 2 hours) of 0% and a mortality at 0.8 ppm ([1]; 4 hours) of 0%. It also gave a mortality at 0.8 ppm ([1]; 24 hours) of 0%, a mortality at 1.5 ppm ([1]; 1 hour) of 0% and a mortality at 1.5 ppm ([1]; 2 hours) of 0%. It also gave a mortality at 1.5 ppm ([1]; 4 hours) of 0%, a mortality at 1.5 ppm ([1]; 24 hours) of 10% and a mortality at 3 ppm ([1]; 1 hour) of 10%. For the same compound, the mortality at 3 ppm ([1]; 2 hours) was 20%, the mortality at 3 ppm ([1]; 4 hours) was 50% and the mortality at 3 ppm ([1]; 24 hours) was 90%. It also gave a mortality at 6 ppm ([1]; 1 hour) of 30%, a mortality at 6 ppm ([1]; 2 hours) of 40% and a mortality at 6 ppm ([1]; 4 hours) of 100%. It also gave a mortality at 6 ppm ([1]; 24 hours) of 100%, a mortality at 12 ppm ([1]; 1 hour) of 40% and a mortality at 12 ppm ([1]; 2 hours) of 70%. The mortality at 12 ppm ([1]; 4 hours) was 100%, the mortality at 12 ppm ([1]; 24 hours) was 100% and the mortality at 25 ppm ([1]; 1 hour) was 40%. The mortality at 25 ppm ([1]; 2 hours) was 70%, the mortality at 25 ppm ([1]; 4 hours) was 100% and the mortality at 25 ppm ([1]; 24 hours) was 100%. For the same compound, the mortality at 50 ppm ([1]; 1 hour) was 60%, the mortality at 50 ppm ([1]; 2 hours) was 90% and the mortality at 50 ppm ([1]; 4 hours) was 100%. The mortality at 50 ppm ([1]; 24 hours) was 100%, the mortality at 100 ppm ([1]; 1 hour) was 100% and the mortality at 100 ppm ([1]; 2 hours) was 100%. For the same compound, the mortality at 100 ppm ([1]; 4 hours) was 100%, the mortality at 100 ppm ([1]; 24 hours) was 100% and the “diffusion into the gaps between stored foodstuffs” value [2] was “diffuses easily”. The vapour pressure [2, 4] was “increased vapour pressure”, the mortality at 1.5 ppm (Sitophilus granarius; wheat fresh) was 100% and the mortality at 1.5 ppm (Sitophilus granarius; wheat stored 1 month) was 90%. The mortality at 1.5 ppm (Sitophilus granarius; wheat stored 2 months) was 100%, the mortality at 1.5 ppm (Sitophilus granarius; wheat stored 3 months) was 70% and the mortality at 3 ppm (Sitophilus granarius; wheat fresh) was 100%. It also gave a mortality at 3 ppm (Sitophilus granarius; wheat stored 1 month) of 100%, a mortality at 3 ppm (Sitophilus granarius; wheat stored 2 months) of 100% and a mortality at 3 ppm (Sitophilus granarius; wheat stored 3 months) of 95%. For the same compound, the mortality at 6 ppm (Sitophilus granarius; wheat fresh) was 100%, the mortality at 6 ppm (Sitophilus granarius; wheat stored 1 month) was 100% and the mortality at 6 ppm (Sitophilus granarius; wheat stored 2 months) was 100%. The mortality at 6 ppm (Sitophilus granarius; wheat stored 3 months) was 100%, the mortality at 12 ppm (Sitophilus granarius; wheat fresh) was 100% and the mortality at 12 ppm (Sitophilus granarius; wheat stored 1 month) was 100%. The mortality at 12 ppm (Sitophilus granarius; wheat stored 2 months) was 100%, the mortality at 12 ppm (Sitophilus granarius; wheat stored 3 months) was 100% and the mortality at 25 ppm (Sitophilus granarius; wheat fresh) was 100%. For the same compound, the mortality at 25 ppm (Sitophilus granarius; wheat stored 1 month) was 100%, the mortality at 25 ppm (Sitophilus granarius; wheat stored 2 months) was 100% and the mortality at 25 ppm (Sitophilus granarius; wheat stored 3 months) was 100%. It also gave a mortality at 50 ppm (Sitophilus granarius; wheat fresh) of 100%, a mortality at 50 ppm (Sitophilus granarius; wheat stored 1 month) of 100% and a mortality at 50 ppm (Sitophilus granarius; wheat stored 2 months) of 100%. For the same compound, the mortality at 50 ppm (Sitophilus granarius; wheat stored 3 months) was 100%, the mortality at 50 ppm (Sit. Granarius; distance 1 cm) was 100% and the mortality at 50 ppm (Sit. Granarius; distance 2 cm) was 100%. For the same compound, the mortality at 50 ppm (Sit. Granarius; distance 3 cm) was 100%, the mortality at 50 ppm (Sit. Granarius; distance 4 cm) was 100% and the mortality at 50 ppm (Sit. Granarius; distance 5 cm) was 90%. It also gave a mortality at 50 ppm (Sit. Granarius; distance 6 cm) of 15%, an LD50 [3] of 500 mg/kg and a mortality at 1.5 ppm (Trogoderma granarium (L); wheat fresh) of 90%. It also gave a mortality at 1.5 ppm (Trogoderma granarium (L); wheat stored 1 month) of 0%, a mortality at 1.5 ppm (Trogoderma granarium (L); wheat stored 2 months) of 0% and a mortality at 1.5 ppm (Trogoderma granarium (L); wheat stored 3 months) of 0%. It also gave a mortality at 3 ppm (Trogoderma granarium (L); wheat fresh) of 95%, a mortality at 3 ppm (Trogoderma granarium (L); wheat stored 1 month) of 10% and a mortality at 3 ppm (Trogoderma granarium (L); wheat stored 2 months) of 0%. It also gave a mortality at 3 ppm (Trogoderma granarium (L); wheat stored 3 months) of 0%, a mortality at 6 ppm (Trogoderma granarium (L); wheat fresh) of 100% and a mortality at 6 ppm (Trogoderma granarium (L); wheat stored 1 month) of 85%. The mortality at 6 ppm (Trogoderma granarium (L); wheat stored 2 months) was 30%, the mortality at 6 ppm (Trogoderma granarium (L); wheat stored 3 months) was 10% and the mortality at 12 ppm (Trogoderma granarium (L); wheat fresh) was 100%. It also gave a mortality at 12 ppm (Trogoderma granarium (L); wheat stored 1 month) of 95%, a mortality at 12 ppm (Trogoderma granarium (L); wheat stored 2 months) of 85% and a mortality at 12 ppm (Trogoderma granarium (L); wheat stored 3 months) of 55%. It also gave a mortality at 25 ppm (Trogoderma granarium (L); wheat fresh) of 100%, a mortality at 25 ppm (Trogoderma granarium (L); wheat stored 1 month) of 100% and a mortality at 25 ppm (Trogoderma granarium (L); wheat stored 2 months) of 100%. The mortality at 25 ppm (Trogoderma granarium (L); wheat stored 3 months) was 100%, the mortality at 50 ppm (Trogoderma granarium (L); wheat fresh) was 100% and the mortality at 50 ppm (Trogoderma granarium (L); wheat stored 1 month) was 100%. For the same compound, the mortality at 50 ppm (Trogoderma granarium (L); wheat stored 2 months) was 100% and the mortality at 50 ppm (Trogoderma granarium (L); wheat stored 3 months) was 100%.
